{
  "source": "patent US20240207292A1",
  "about": "“BORONIC ACID COMPOUNDS, COMPOSITIONS AND METHODS” (Trustees of Tufts College, priority 2021, published 2024)",
  "note": "Square brackets hold non-standard residues; d marks the D form. Peptide text beside a SMILES is read from it. * marks the point of attachment. DOTA(Ga) = O=C1CN2CCN3CCN(CC(=O)*)CCN(CC2)CC(=O)[O][Ga]([O]1)[O]C(=O)C3; DOTA = O=C(O)CN1CCN(CC(=O)O)CCN(CC(=O)*)CCN(CC(=O)O)CC1; boroPro = OB(O)[C@@H]1CCCN1*",
  "data": [
    {"biological_target": "recombinant human fibroblast activation protein (FAP) (Homo sapiens (Human), UniProt Q12884)", "sequence (Q12884 whole entry)": "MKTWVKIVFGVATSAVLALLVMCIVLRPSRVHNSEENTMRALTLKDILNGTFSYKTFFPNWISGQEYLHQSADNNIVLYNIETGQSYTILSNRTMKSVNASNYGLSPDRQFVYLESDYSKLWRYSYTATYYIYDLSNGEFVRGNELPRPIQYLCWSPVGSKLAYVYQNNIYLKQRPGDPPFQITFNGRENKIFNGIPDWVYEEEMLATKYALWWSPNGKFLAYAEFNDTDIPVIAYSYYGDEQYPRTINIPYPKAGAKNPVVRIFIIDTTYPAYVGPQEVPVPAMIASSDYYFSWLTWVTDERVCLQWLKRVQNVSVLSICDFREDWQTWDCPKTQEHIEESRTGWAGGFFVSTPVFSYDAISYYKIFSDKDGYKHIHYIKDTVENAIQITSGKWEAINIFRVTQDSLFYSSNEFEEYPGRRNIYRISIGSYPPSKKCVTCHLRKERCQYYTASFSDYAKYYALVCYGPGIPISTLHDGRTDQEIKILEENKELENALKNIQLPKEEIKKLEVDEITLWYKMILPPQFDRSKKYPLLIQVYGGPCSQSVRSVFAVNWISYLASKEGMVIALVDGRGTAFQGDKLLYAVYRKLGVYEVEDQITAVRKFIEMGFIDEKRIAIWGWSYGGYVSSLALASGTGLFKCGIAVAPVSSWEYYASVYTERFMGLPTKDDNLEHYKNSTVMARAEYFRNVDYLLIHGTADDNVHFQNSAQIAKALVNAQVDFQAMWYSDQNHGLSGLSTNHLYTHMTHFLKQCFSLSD", "assay": "In vitro assay fibroblast activation protein IC50 (Example 21)", "format": "biochemical", "settings": "not given", "method": "(§1) The purpose of this assay is to determine the IC50 of various inhibitors against recombinant human dipeptidyl peptidase IV (DPPIV), fibroblast activation protein (FAP) or prolyl oligopeptidase (PREP).\n(§2) The assays are conducted in the following steps: • 1 Dissolve the compound in DMSO to a final concentration of 100 mM. From this, prepare a 1 mM stock at pH 7.5 in 50 mM Tris, 140 mM NaCl Buffer (FAP)/pH 7.5 in 25 mM Tris, 250 mM NaCl Buffer/[…]. • 2. Serial dilute (1:10) the 1 mM compound stocks prepared previously into the appropriate assay buffer (FAP: 50 mM Tris, 140 mM NaCl, pH 7.5/PREP: 25 mM Tris, 0.25 M NaCl, pH 7.5/DPPIV: 25 mM Tris, pH 8.0) to one row of a 96-well plate. • 3. […] Dilute the enzymes into their appropriate assay buffers. The final enzyme concentrations should be 0.1, 1.2, and 0.6 nM for DPPIV, FAP and PREP respectively. Add 180 μL to each well needed in columns 2-10. Column 1(A,B,C) should be prepared with 200 μl of appropriate assay buffer as control. Column 1(D,E,F,G,H) should be prepared with 20 μl of appropriate assay buffer and 180 ul enzyme as no inhibitor control. • 5. Add 20 μL of the compound of interest from the dilution plate prepared in step 2 to columns 2-10 of the assay plate where appropriate. Each sample should be tested in triplicate. Allow this to incubate for 10 minutes at room temperature, shaking the plate for the first two minutes. • 6. Add 10 μL of 20× substrate prepared in step 3 to each well and allow this to incubate for 15 minutes at room temperature, shaking the plate for the first two minutes. • 7. Read the fluorescence at λex: 380, λem: 460. (DPcore=[dAla|dSer|Gly]-[boroPro|Pro-nitrile], XXaa=alpha-amino acid)", "units": {"IC50": "nM"}, "values": [
      {"smiles": "C[C@@H](NC(=O)c1ccc(NC(=O)CN2CCN3CCN4CCN(CC2)CC(=O)[O][Lu]([O]C(=O)C3)[O]C(=O)C4)cc1)C(=O)N1CCC[C@H]1B(O)O", "note": "[6572LU]", "IC50": 9.5},
      {"smiles": "C[C@@H](NC(=O)c1ccc(NNC(=O)CNC(=O)CN2CCN3CCN4CCN(CC2)CC(=O)[O][Lu]([O]C(=O)C3)[O]C(=O)C4)cc1)C(=O)N1CCC[C@H]1B(O)O", "note": "[6487LU]", "IC50": 8.8},
      {"smiles": "C[C@@H](NC(=O)c1ccc(NNC(=O)CCCCCNC(=O)CN2CCN(CC(=O)O)CCN(CC(=O)O)CCN(CC(=O)O)CC2)nc1)C(=O)N1CCC[C@H]1B(O)O", "note": "[compound 6958]", "IC50": 3.2},
      {"smiles": "C[C@@H](NC(=O)c1ccc(NNC(=O)CNC(=O)CN2CCN3CCN(CC(=O)O)CCN(CC2)CC(=O)[O][Cu][O]C(=O)C3)cc1)C(=O)N1CCC[C@H]1B(O)O", "note": "[6487CU]", "IC50": 8.8},
      {"smiles": "C[C@@H](NC(=O)c1ccc(NNC(=O)CN2CCN3CCN(CC(=O)O)CCN(CC2)CC(=O)[O][Cu][O]C(=O)C3)cc1)C(=O)N1CCC[C@H]1B(O)O", "note": "[5183BU]", "IC50": 10.3},
      {"smiles": "C[C@@H](NC(=O)c1ccc(NNC(=O)CCCNC(=O)CN2CCN3CCN4CCN(CC2)CC(=O)[O][Gd]([O]C(=O)C3)[O]C(=O)C4)nc1)C(=O)N1CCC[C@H]1B(O)O", "note": "[6489 GD]", "IC50": 1.1},
      {"smiles": "C[C@@H](NC(=O)c1ccc(NC(=O)CCNC(=O)CN2CCN3CCN4CCN(CC2)CC(=O)[O][Lu]([O]C(=O)C3)[O]C(=O)C4)cc1)C(=O)N1CCC[C@H]1B(O)O", "note": "[6590LU]", "IC50": 0.4},
      {"smiles": "CC(C)[C@H](NC(=O)c1ccc(CNC(=O)CN2CCN3CCN4CCN(CC2)CC(=O)[O][Ga]([O]C(=O)C3)[O]C(=O)C4)cc1)C(=O)N[C@H](C)C(=O)N1CCC[C@H]1B(O)O", "note": "[6967 GA]", "IC50": 65},
      {"smiles": "C[C@@H](NC(=O)c1ccc(NNC(=O)CN2CCN3CCN4CCN(CC2)CC(=O)[O][Ga]([O]C(=O)C3)[O]C(=O)C4)nc1)C(=O)N1CCC[C@H]1B(O)O", "note": "[5183GA]", "IC50": 46.1},
      {"smiles": "C[C@@H](NC(=O)c1ccc(NC(=O)CCCCNC(=O)CN2CCN3CCN4CCN(CC2)CC(=O)[O][Ga]([O]C(=O)C3)[O]C(=O)C4)cc1)C(=O)N1CCC[C@H]1B(O)O", "note": "[6590 GA]", "IC50": 15}
    ]},
    {"biological_target": "recombinant human fibroblast activation protein (FAP) (Homo sapiens (Human), UniProt Q12884)", "assay": "In vitro assay fibroblast activation protein IC50 (Example 21)", "format": "biochemical", "settings": "Z-Gly-Pro-AMC; 1.2 nM enzyme", "method": "as §1, §2", "units": {"IC50": "nM"}, "values": [
      {"smiles": "CC(C)[C@H](NC(=O)CNC(=O)CNC(=O)CNC(=O)CNC(=O)CNC(=O)CN1CCN2CCN3CCN(CC1)CC(=O)[O][Ga]([O]C(=O)C2)[O]C(=O)C3)C(=O)N[C@H](C)C(=O)N1CCC[C@H]1B(O)O", "note": "[6848GA] ({DOTA(Ga)}-GGGGGV[dA]-boroPro)", "IC50": 180},
      {"smiles": "CC(C)[C@H](NC(=O)CNC(=O)CNC(=O)CNC(=O)CNC(=O)CNC(=O)CN1CCN(CC(=O)O)CCN(CC(=O)O)CCN(CC(=O)O)CC1)C(=O)N[C@H](C)C(=O)N1CCC[C@H]1B(O)O", "note": "[compound 6848] ({DOTA}-GGGGGV[dA]-boroPro)", "IC50": 14.8},
      {"smiles": "CC(C)[C@H](NC(=O)CCCCNC(=O)CN1CCN2CCN3CCN(CC1)CC(=O)[O][Lu]([O]C(=O)C2)[O]C(=O)C3)C(=O)N[C@H](C)C(=O)N1CCC[C@H]1B(O)O", "note": "[6940LU, DOTA(Lu)-PEN-Val-Dala-boroPro]", "IC50": 23.6},
      {"smiles": "CC(C)[C@H](NC(=O)CNC(=O)CN1CCN2CCN3CCN(CC1)CC(=O)[O][Ga]([O]C(=O)C2)[O]C(=O)C3)C(=O)N[C@H](C)C(=O)N1CCC[C@H]1B(O)O", "note": "[6521GA]", "IC50": 277},
      {"smiles": "C[C@@H](NC(=O)CN1CCN(CC(=O)O)CCN(CC(=O)O)CCN(CC(=O)O)CC1)C(=O)N1CCC[C@H]1B(O)O", "note": "[compound 4535]", "IC50": 290},
      {"smiles": "CC(C)[C@H](NC(=O)CNC(=O)CNC(=O)CNC(=O)CNC(=O)CNC(=O)CNC(=O)CN1CCN(CC(=O)O)CCN(CC(=O)O)CCN(CC(=O)O)CC1)C(=O)N[C@H](C)C(=O)N1CCC[C@H]1B(O)O", "note": "[compound 6850] ({DOTA}-GGGGGGV[dA]-boroPro)", "IC50": 21},
      {"smiles": "CC(C)[C@H](NC(=O)CCNC(=O)CN1CCN(CC(=O)O)CCN(CC(=O)O)CCN(CC(=O)O)CC1)C(=O)N[C@H](C)C(=O)N1CCC[C@H]1B(O)O", "note": "[compound 6615, DOTA-betaala-Val-D-ala-boroPro]", "IC50": 121}
    ]},
    {"biological_target": "recombinant human prolyl oligopeptidase (PREP) (Homo sapiens (Human), UniProt P48147)", "sequence (P48147 whole entry)": "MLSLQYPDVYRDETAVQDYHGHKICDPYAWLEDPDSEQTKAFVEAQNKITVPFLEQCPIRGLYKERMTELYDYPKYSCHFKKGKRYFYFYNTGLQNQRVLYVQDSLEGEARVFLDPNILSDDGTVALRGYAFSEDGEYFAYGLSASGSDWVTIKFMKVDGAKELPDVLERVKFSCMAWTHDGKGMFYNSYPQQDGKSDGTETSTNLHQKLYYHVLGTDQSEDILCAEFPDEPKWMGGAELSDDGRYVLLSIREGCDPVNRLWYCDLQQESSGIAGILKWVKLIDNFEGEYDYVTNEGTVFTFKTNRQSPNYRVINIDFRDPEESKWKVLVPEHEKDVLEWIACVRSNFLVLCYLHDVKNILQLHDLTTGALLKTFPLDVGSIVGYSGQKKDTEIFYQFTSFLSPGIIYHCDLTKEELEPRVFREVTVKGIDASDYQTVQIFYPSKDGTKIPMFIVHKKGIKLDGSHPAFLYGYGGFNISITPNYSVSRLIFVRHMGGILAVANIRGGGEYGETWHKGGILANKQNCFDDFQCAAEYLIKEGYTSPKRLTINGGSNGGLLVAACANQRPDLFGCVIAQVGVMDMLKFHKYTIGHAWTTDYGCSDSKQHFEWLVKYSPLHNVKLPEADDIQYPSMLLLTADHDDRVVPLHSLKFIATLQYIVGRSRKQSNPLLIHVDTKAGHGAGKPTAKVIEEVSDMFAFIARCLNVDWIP", "assay": "In vitro assay prolyl oligopeptidase IC50 (Example 21)", "format": "biochemical", "settings": "not given", "method": "as §1, §2", "units": {"IC50": "nM"}, "values": [
      {"smiles": "C[C@@H](NC(=O)c1ccc(NC(=O)CN2CCN3CCN4CCN(CC2)CC(=O)[O][Lu]([O]C(=O)C3)[O]C(=O)C4)cc1)C(=O)N1CCC[C@H]1B(O)O", "note": "[6572LU]", "IC50": 891},
      {"smiles": "C[C@@H](NC(=O)c1ccc(NNC(=O)CNC(=O)CN2CCN3CCN4CCN(CC2)CC(=O)[O][Lu]([O]C(=O)C3)[O]C(=O)C4)cc1)C(=O)N1CCC[C@H]1B(O)O", "note": "[6487LU]", "IC50": 34}
    ]},
    {"biological_target": "recombinant human prolyl oligopeptidase (PREP) (Homo sapiens (Human), UniProt P48147)", "assay": "In vitro assay prolyl oligopeptidase IC50 (Example 21)", "format": "biochemical", "settings": "Z-Gly-Pro-AMC; 0.6 nM enzyme", "method": "as §1, §2", "units": {"IC50": "nM"}, "values": [
      {"smiles": "C[C@@H](NC(=O)CN1CCN(CC(=O)O)CCN(CC(=O)O)CCN(CC(=O)O)CC1)C(=O)N1CCC[C@H]1B(O)O", "note": "[compound 4535]", "IC50": "> 10000"}
    ]}
  ]
}
